Assay results as given in ChEMBL document CHEMBL1156885, “Structure-based discovery of novel chemotypes for adenosine A(2A) receptor antagonists” (J Med Chem, 2010).

Assays:
Adenosine receptor A2a [1] = biological target: T1, Adenosine receptor A2a (Homo sapiens, UniProt P29274); test: Inhibition of human adenosine 2A receptor
Adenosine receptor A2a [2] = biological target: T1, Adenosine receptor A2a; test: Inhibition of human adenosine 2A receptor at 2 uM
Adenosine receptor A2a [3] = biological target: T1, Adenosine receptor A2a; test: Inhibition of human adenosine 2A receptor at 32 uM

T1 sequence (P29274 whole entry): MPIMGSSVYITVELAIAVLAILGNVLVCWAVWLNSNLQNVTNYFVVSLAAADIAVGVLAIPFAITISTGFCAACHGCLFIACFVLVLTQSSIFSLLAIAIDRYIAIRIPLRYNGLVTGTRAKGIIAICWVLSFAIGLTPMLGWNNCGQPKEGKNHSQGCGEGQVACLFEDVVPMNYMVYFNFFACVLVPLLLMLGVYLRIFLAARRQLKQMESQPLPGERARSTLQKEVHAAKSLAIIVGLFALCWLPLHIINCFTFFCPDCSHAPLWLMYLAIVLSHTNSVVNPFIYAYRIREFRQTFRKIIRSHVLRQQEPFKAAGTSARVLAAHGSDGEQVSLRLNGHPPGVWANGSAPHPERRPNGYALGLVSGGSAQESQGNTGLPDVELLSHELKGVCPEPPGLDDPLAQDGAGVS

SMILES | Ki (Adenosine receptor A2a [1]) | other results
CC(=O)c1snc(Nc2cc(Cl)ccc2F)c1N | 41 µM | 
Nc1c(C(=O)Nc2ccc([N+](=O)[O-])cc2)sc2nc3c(cc12)CCCC3 | 15 µM | 
Nc1c(C(=O)Nc2ccccc2Cl)sc2ncccc12 | > 100 µM | 
Cc1cc2oc(N)c(C=O)c(=O)c2cc1C | > 100 µM | 
Nc1nc(SCCCCC(=O)O)c2[nH]cnc2n1 | > 100 µM | 
Nc1c(C(=O)Nc2ccc(F)cc2)sc2nc3c(cc12)N1CCC3CC1 | > 100 µM | 
COC(=O)c1c(N)oc2c(-c3ccc(C)cc3)c3c(C(=O)OC)c(N)oc3cc12 | > 100 µM | 
Nc1c(/C=N/c2ccccc2)ccc2c1C(=O)c1ccccc1C2=O | > 100 µM | 
CC(=O)c1ccc(NC(=O)c2sc3nc4c(cc3c2N)CCCC4)cc1 | > 100 µM | 
CC(Sc1nc(N)c(C(=O)Nc2ccccc2)cc1C#N)C(=O)NCc1ccccc1Cl (stereo unspecified) | > 100 µM | 
Cc1ccc2oc(=N)c3c(N)nc(-c4ccc5c(c4)OCO5)cc3c2c1 | > 100 µM | 
Nc1ccc(-c2nc3c(N)cccc3[nH]2)cc1 | > 100 µM | 
Nc1ncnc2[nH]c(SCCC(=O)O)nc12 | > 100 µM | 
COc1ccc(-n2ccnc2SCC(=O)c2c(N)n(C3CC3)c(=O)[nH]c2=O)cc1 | 25 µM | 
Nc1nc(CSc2nnc3ccccn23)nc(Nc2ccc(F)cc2)n1 | > 100 µM | 
COc1ccc(Nc2nc(N)nc(CSc3nnc(N)s3)n2)cc1 | 14 µM | 
COCCOC(=O)c1sc(N)c(C#N)c1C | 17 µM | 
Cc1nc2ccccc2cc1C(=O)OCC(=O)c1c(N)n(C)c(=O)[nH]c1=O | > 100 µM | 
Cc1ccc(Nc2nc(N)nc(CSC(C)C(=O)N3CCCCCC3)n2)cc1 (stereo unspecified) | 33 µM | 
Cc1ccc(Nc2nc(N)nc(CSCCO)n2)cc1 | 17 µM | 
CCOC(=O)c1cnc(SCCC(N)=O)nc1N | > 100 µM | 
Nc1ncnc2sc3c(c12)CCN(C(=O)CN1CSCC1=O)C3 | > 100 µM | 
CCOC(=O)c1cnc(SCC(=O)O)nc1N | > 100 µM | 
Nc1c(Nc2ccccc2C(=O)O)c2ccccc2oc1=O | > 100 µM | 
CN(C(=O)CSc1nc(N)nn1-c1ccccc1)c1ccccc1 | > 100 µM | 
Cc1ccc(Nc2nc(N)nc(CSCC(=O)NC3CC3)n2)cc1 | > 100 µM | 
CCOC(=O)c1cc(-c2ccc(Br)cc2)cc2c(N)sc(Br)c12 | > 100 µM | 
Cc1ccc(C(=O)CSc2nc(N)c(C#N)c(-c3cccs3)c2C#N)c(C)c1 | > 100 µM | 
CC(=O)Oc1cccc(-c2nc(C(N)=O)c(N)o2)c1 | 36 µM | 
Cc1ccccc1NC(=O)CSCc1nc(N)nc(Nc2ccccc2C)n1 | > 100 µM | 

These reach a lower Ki (Adenosine receptor A2a [1]). Values come first.

Ki (Adenosine receptor A2a [1]) | SMILES | other results
13 µM | Nc1nc(CSc2nnc(N)s2)nc(Nc2ccc(F)cc2)n1 | 
9.1 µM | CCc1nc2sc(C(=O)c3cccc(Cl)c3)c(N)c2cc1C | 
6.9 µM | Nc1c(C(=O)Nc2ccc(Cl)cc2)sc2ncccc12 | 
6.1 µM | N#CC1=C(NC(=O)CSc2ncc(C#N)c(N)n2)SC2CCCCC12 (stereo unspecified) | 
6 µM | Cc1ccc(Nc2nc(N)nc(CSC(C)C(=O)NCc3ccccc3Cl)n2)cc1 (stereo unspecified) | 
3.2 µM | Nc1cccc2c1C(=O)c1ccccc1C2=O | 
2.9 µM | Cc1ccc(N2C(=O)c3cccc(N)c3C2=O)cc1 | 
2.8 µM | Cc1ccc(Nc2nc(N)nc(CN3C(=O)NC4(CCCCC4)C3=O)n2)cc1 | 
2.7 µM | CN1CCc2nc3sc(C(=O)Nc4ccc(Cl)cc4)c(N)c3cc2C1 | 
2.2 µM | Nc1c(C(=O)c2ccccc2)oc2ccc(Br)cc12 | 
1.9 µM | Nc1c(Sc2ccccc2)cc(Sc2ccccc2)c2c1C(=O)c1ccccc1C2=O | 
1.3 µM | CCCc1ccc2c(N)c(C(=O)c3ccccc3)sc2n1 | 
1 µM | Nc1c(Oc2ccccc2)ccc2c1C(=O)c1ccccc1C2=O | 
1 µM | Nc1c(C(=O)Nc2nccs2)sc2nc3c(cc12)C(=O)CCC3 | 
0.8 µM | Cc1cccc(NC2=C(N)C(=O)c3ccccc3C2=O)c1 | 
0.64 µM | Cn1c(=O)cc2c3c(c(N)ccc31)C(=O)c1ccccc1-2 | 
0.63 µM | N#Cc1c(N)nc2c(C(N)=O)c(Nc3ccccc3)sc2c1-c1ccccc1 | 
0.56 µM | NC1=C(Nc2cccc(C(F)(F)F)c2)C(=O)c2ccccc2C1=O | 
0.53 µM | COc1ccc(N)c2c1C(=O)c1ccccc1C2=O | 
0.32 µM | Nc1ccc(N)c2c1C(=O)c1ccccc1C2=O | 
0.3 µM | Nc1c(C(=O)Nc2ccccc2F)sc2nc3c(cc12)C(=O)CCC3 | 
0.25 µM | Nc1ccc(Cl)c2c1C(=O)c1ccccc1C2=O | 
0.06 µM | N#Cc1c(N)nc2c(oc3ccccc32)c1-c1ccccc1 | inhibition (Adenosine receptor A2a [3]): 91%
0.032 µM | COc1ccc(Cl)cc1Nc1nc(N)nc(-c2oc3ccccc3c2C)n1 | inhibition (Adenosine receptor A2a [2]): 80%
